The assay has as its system GFP-14-3-3β. The assay can be described thus: GFP-14-3-3β co-IP with LC-MS/MS, untreated GFP-14-3-3β versus GFP control (14-3-3 interactome). The class given is binding, human. The following applies: log2 difference; pairwise comparison untreated vs GFP, label-free quantification, 3 replicates each.

Data on one substance can be found in article PMC7367873, “Dissecting the sequence determinants for dephosphorylation by the catalytic subunits of phosphatases PP1 and PP2A” (Nature Communications, 2020).

“PP1c: recombinant catalytic subunit of PP1”: the “Difference (log2), untreated vs GFP” value was 1.715.
